According to patent US20100210722A1, “COMPOSITION FOR PREVENTING OR TREATING LIPID METABOLIC DISORDERS COMPRISING FUCOXANTHIN OR MARINE PLANT EXTRACT CONTAINING SAME” (AMICOGEN, INC., priority 2007, published 2010):
Marks after values point to notes of the source that are not given here.

Key:
Format in all cases: in vivo, C57BL/6N/CriBgi mice
Details in all cases: high fat diet, 6 weeks
malic enzyme (ME) = assay: ME activity in adipose tissue
Text: (§1) Test diets were as follows: “normal diet group”=AIN-76 semisynthetic diet of Teklad (Madison, Wl, USA); “high fat diet group”=normal diet+10% of corn oil and 10% of lard; “test group I”=high fat diet+fucoxanthin extract of Example 1 (fucoxanthin content=0.05%); “test group II”=high fat diet+fucoxanthin extract of Example 1 (fucoxanthin content=0.2%); “test group III”=high fat diet+fucoxanthin extract of Example 2 (fucoxanthin content=0.05%); “test group IV”=high fat diet+fucoxanthin extract of Example 2 (fucoxanthin content=0.2%). The 6 diets (normal diet, high fat diet, and test I, II, III and IV) were given to the animals for 6 weeks. Diet intake was recorded every day, and body weight was measured once a week.
(§2) The supernatant was centrifuged again at 12,000×g for 15 minutes. Then, the supernatant was subjected to high-speed centrifuging (Beckman, Optima TLX-120, USA) at 100,000×g for 1 hour. Then, change of the activity of enzymes involved in the synthesis of fatty acid—fatty acid synthase (FAS), glucose-6-phosphate dehydrogenase (G6PD) and malic enzyme (ME)—was measured.
The ME enzyme is also an enzyme that supplied reducing energy required for the synthesis of fatty acid. […] ME activity was determined as follows. […] After 2 minutes of reaction at 27° C., absorbance was measured at 340 nm. ME activity was calculated as nmol of NADPH produced per 1 mg of protein in cell per minute.

[1] = tested on: fatty acid synthase (FAS); assay: FAS activity in adipose tissue
Text: as §1, §2
(§3) Specifically, FAS activity was determined as follows. […] After 10 minutes of reaction at 30° C., decrease of absorbance was measured. FAS activity was calculated as nmol of NADPH oxidized per 1 mg of protein in cell per minute.

[2] = tested on: fatty acid synthase (FAS); assay: FAS activity in liver tissue
Text: as §1, §2, §3

[3] = tested on: glucose-6-phosphate dehydrogenase (G6PD); assay: G6PD activity in liver tissue
Text: as §1, §2
The G6PD enzyme is an enzyme that supplied reducing energy required for the synthesis of fatty acid. […] G6PD activity was measured at 340 nm by the degree of reduction of NADP^+ to NADPH by G6PD. […] G6PD activity was calculated as nmol of NADPH produced per 1 mg of protein in cell per minute.

[4] = tested on: phosphatidate phosphohydrolase (PAP); assay: PAP activity in liver tissue
Text: as §1

[5] = tested on: carnitine palmitoyltransferase (CPT); assay: CPT activity (mitochondrial fraction)
Text: as §1
CPT is an enzyme involved in the oxidation of fatty acid and may be used as an index for the degree of oxidation of fatty acid. CPT activity was calculated from the measurement of CoASH produced from palmitoyl-CoA using 5,5-dithiobis-(2-nitrobenzoic acid) (DTNB). Specifically, 50 μL of mitochondrial fraction was added to a reaction solution containing 116 mM Tris-HCl (pH 8.0), 1.1 mM EDTA, 2.50 mM 1-carnitine, 0.5 mM DTNB, […] palmitoyl-CoA and 0.2% Triton X-100 to initiate reaction. Then, change of absorbance was measured at 25° C. and 412 nm for 2 minutes.

[6] = fucoxanthin content 0.05% (Test I/III)
[7] = fucoxanthin content 0.2% (Test II/IV)

Q: How did the ME activity (malic enzyme (ME); [6]) turn out when `CC(=O)O[C@H]1CC(C)(C)C(=C=C/C(C)=C/C=C/C(C)=C/C=C/C=C(C)/C=C/C=C(\C)C(=O)C[C@@]23O[C@]2(C)C[C@@H](O)CC3(C)C)[C@](C)(O)C1` [highly pure fucoxanthin, Fucoxanthin] was run?
A: The ME activity was 0.92 ± 0.14^a mmol/min/mg protein.

Q: And the ME activity (malic enzyme (ME); [7])?
A: The ME activity was 0.94 ± 0.11^a mmol/min/mg protein.

Q: And the FAS activity [1, 6]?
A: Its FAS activity is 90.55 ± 9.66^a mmol/min/mg protein.

Q: And the FAS activity [1, 7]?
A: The FAS activity was 74.26 ± 6.38^a mmol/min/mg protein.

Q: What about the FAS activity [2, 6] of the same compound?
A: Its FAS activity is 7.92 ± 0.59^a mmol/min/mg protein.

Q: What about the FAS activity [2, 7] of the same compound?
A: The FAS activity was 9.49 ± 0.65^ab mmol/min/mg protein.

Q: What about the G6PD activity [3, 6] of the same compound?
A: Its G6PD activity is 51.53 ± 4.31^a mmol/min/mg protein.

Q: And the G6PD activity [3, 7]?
A: Its G6PD activity is 50.51 ± 3.74^a mmol/min/mg protein.

Q: What about the PAP activity [4, 6] of the same compound?
A: The PAP activity was 21.62 ± 1.54^a mmol/min/mg protein.

Q: What about the PAP activity [4, 7] of the same compound?
A: The PAP activity was 26.14 ± 1.03^ab mmol/min/mg protein.

Q: And the CPT activity [5, 6]?
A: Its CPT activity is 13.36 ± 1.66^ab mmol/min/mg protein.

Q: What about the CPT activity [5, 7] of the same compound?
A: The CPT activity was 40.30 ± 12.10^c mmol/min/mg protein.
